Laboratory results published in patent US4636492A, “Inhibition of viral protease activity by peptide halomethyl ketones” (priority 1984, dated 1987).
Numbered stars: 1 amine (or outer) side, 2 acyl side, 3 side chain; on linkers, the order of the positions; unused ones are H or OH. Square brackets hold non-standard residues; d marks the D form. Peptide text beside a SMILES is read from it. * marks the point of attachment. ξ: configuration not given here. Dansyl = CN(C)c1cccc2c(S(=O)(=O)*)cccc12; Suc = O=C(CCC(=O)[*:2])[*:1]; MeOSuc = COC(=O)CCC(=O)*; Cbz = O=C(OCc1ccccc1)*; Boc = CC(C)(C)OC(=O)*; ξL = CC(C)CC(N)C(=O)O; ξV = CC(C)C(N)C(=O)O; CH2Cl = ClC*

Biological target: T1, subtilisin BPN' (Bacillus amyloliquefaciens, UniProt P00782)
T1 sequence (P00782 108-382): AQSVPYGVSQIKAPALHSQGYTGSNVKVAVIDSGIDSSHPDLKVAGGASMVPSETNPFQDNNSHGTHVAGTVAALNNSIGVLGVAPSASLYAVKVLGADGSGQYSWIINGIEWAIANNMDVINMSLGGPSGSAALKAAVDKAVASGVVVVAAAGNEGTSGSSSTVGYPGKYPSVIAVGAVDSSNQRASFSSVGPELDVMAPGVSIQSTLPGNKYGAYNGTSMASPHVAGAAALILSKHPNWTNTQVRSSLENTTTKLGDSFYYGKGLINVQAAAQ
Test: not given
Conditions: among a series of peptide chloromethyl ketones; cited from earlier work

| SMILES | Inhibition of subtilisin BPN' (relative rate) |
| --- | --- |
| CC(=O)N[C@@H](Cc1ccccc1)C(=O)NCC(=O)N[C@@H](C)C(=O)NC(CC(C)C)C(=O)CCl (stereo partly drawn) [Example 2, acetyl-L-phenylalanyl-L-glycyl-L-alanyl-L-leucyl chloromethyl ketone] (Ac-FGA[ξL]-CH2Cl) | fastest inhibitor |

Tested on: Human rhinovirus type 1A
Test: Plaque inhibition assay
Format: cell-based
Conditions: HeLa cells, concentration giving 90% plaque reduction

| SMILES | Antiviral activity, as scored by 90% plaque reduction |
| --- | --- |
| CC(C)C[C@H](NC(=O)[C@H](CC(C)C)NC(=O)CNC(=O)[C@H](Cc1ccccc1)NC(=O)OCc1ccccc1)C(=O)CCl [Example 12, N-carbobenzoxy-L-phenylalanyl-L-glycyl-L-leucyl-L-leucine chloromethyl ketone] (Cbz-FGLL-CH2Cl) | 1 µg/mL |

Biological target: chymotrypsin (Bos taurus, UniProt P00766)
Test: not given
Conditions: inhibitor concentration of 600 μg/mL; cited from earlier work

| SMILES | Inhibition of chymotrypsin |
| --- | --- |
| CC(=O)N[C@@H](CC(C)C)C(=O)N[C@@H](CC(C)C)C(=O)N[C@@H](Cc1ccccc1)C(C)=O [Ac-Leu-Leu-PheCH3] | no inhibition was observed |

Tested on: human HeLa-O cells
Test: not given
Conditions: not given

| SMILES | Cytotoxicity first detected at a concentration |
| --- | --- |
| CC(C)C[C@H](NC(=O)[C@H](CC(C)C)NC(=O)CNC(=O)[C@H](Cc1ccccc1)NC(=O)OCc1ccccc1)C(=O)CCl [Example 12, N-carbobenzoxy-L-phenylalanyl-L-glycyl-L-leucyl-L-leucine chloromethyl ketone] (Cbz-FGLL-CH2Cl) | about 15 μg/mL |

Tested on: human poliomyelitisvirus type 2
Test: not given
Format: cell-based
Conditions: not given

| SMILES | Activity (protease-inhibiting activity) |
| --- | --- |
| COC(=O)CCC(=O)N[C@@H](Cc1ccccc1)C(=O)NCC(=O)N[C@@H](CC(C)C)C(=O)N[C@@H](CCC(=O)OC)C(=O)CCl [Example 18, MeOSuc--Phe--Gly--Leu--Glu(OCH3)CH2 Cl] (MeOSuc-FGLE(OMe)-CH2Cl) | ++++ (key: -: no activity; +/-: low activity; +: active at 100 μg/mL; ++: active at 50 μg/mL; +++: active at 10 μg/mL; ++++: active at <5 μg/mL) |
| CC(C)C[C@H](NC(=O)[C@H](C)NC(=O)CNC(=O)[C@H](Cc1ccccc1)NC(=O)OCc1ccccc1)C(=O)CCl [Example 1, Z--Phe--Gly--Ala--LeuCH2 Cl] (Cbz-FGAL-CH2Cl) | +++ (key: -: no activity; +/-: low activity; +: active at 100 μg/mL; ++: active at 50 μg/mL; +++: active at 10 μg/mL; ++++: active at <5 μg/mL) |
| CC(C)C[C@H](NC(=O)[C@H](C)NC(=O)CNC(=O)[C@H](Cc1ccccc1)NS(=O)(=O)c1cccc2c(N(C)C)cccc12)C(=O)CCl [Example 5, DNS--Phe--Gly--Ala--LeuCH2 Cl] (Dansyl-FGAL-CH2Cl) | +++ (key: -: no activity; +/-: low activity; +: active at 100 μg/mL; ++: active at 50 μg/mL; +++: active at 10 μg/mL; ++++: active at <5 μg/mL) |
| CC(C)C[C@H](NC(=O)[C@H](CC(C)C)NC(=O)CNC(=O)[C@H](Cc1ccccc1)NC(=O)OCc1ccccc1)C(=O)CCl [Example 12, N-carbobenzoxy-L-phenylalanyl-L-glycyl-L-leucyl-L-leucine chloromethyl ketone] (Cbz-FGLL-CH2Cl) | ++++ (key: -: no activity; +/-: low activity; +: active at 100 μg/mL; ++: active at 50 μg/mL; +++: active at 10 μg/mL; ++++: active at <5 μg/mL) |
| COC(=O)CCC(=O)N[C@@H](Cc1ccccc1)C(=O)NCC(=O)N[C@@H](C)C(=O)N[C@@H](CC(C)C)C(=O)CCl [Example 4, methoxy-succinyl-L-phenylalanyl-L-glycyl-L-alanyl-L-leucyl chloromethyl ketone] (MeOSuc-FGAL-CH2Cl) | +++ (key: -: no activity; +/-: low activity; +: active at 100 μg/mL; ++: active at 50 μg/mL; +++: active at 10 μg/mL; ++++: active at <5 μg/mL) |
| CC(=O)N[C@@H](Cc1ccccc1)C(=O)NCC(=O)N[C@@H](C)C(=O)NC(CC(C)C)C(=O)CCl (stereo partly drawn) [Example 2, acetyl-L-phenylalanyl-L-glycyl-L-alanyl-L-leucyl chloromethyl ketone] (Ac-FGA[ξL]-CH2Cl) | +++ (key: -: no activity; +/-: low activity; +: active at 100 μg/mL; ++: active at 50 μg/mL; +++: active at 10 μg/mL; ++++: active at <5 μg/mL) |
| CC(C)C[C@H](NC(=O)CNC(=O)CNC(=O)[C@H](Cc1ccccc1)NC(=O)OCc1ccccc1)C(=O)CCl [Example 9, Z--Phe--Gly--Gly--LeuCH2 Cl] (Cbz-FGGL-CH2Cl) | +++ (key: -: no activity; +/-: low activity; +: active at 100 μg/mL; ++: active at 50 μg/mL; +++: active at 10 μg/mL; ++++: active at <5 μg/mL) |
| CC(C)C(NC(=O)[C@H](C)NC(=O)CNC(=O)[C@H](Cc1ccccc1)NC(=O)OCc1ccccc1)C(=O)CCl (stereo partly drawn) [Example 11, Z--Phe--Gly--Ala--ValCH2 Cl] (Cbz-FGA[ξV]-CH2Cl) | ++ (key: -: no activity; +/-: low activity; +: active at 100 μg/mL; ++: active at 50 μg/mL; +++: active at 10 μg/mL; ++++: active at <5 μg/mL) |
| CC(C)C[C@H](NC(=O)[C@H](C)NC(=O)CNC(=O)[C@H](Cc1ccccc1)Nc1ccc([N+](=O)[O-])cc1[N+](=O)[O-])C(=O)CCl [Example 6, DNP--Phe--Gly--Ala--LeuCH2 Cl] | +++ (key: -: no activity; +/-: low activity; +: active at 100 μg/mL; ++: active at 50 μg/mL; +++: active at 10 μg/mL; ++++: active at <5 μg/mL) |
| CC(C)CC(NC(=O)[C@H](C)NC(=O)CNC(=O)[C@H](Cc1ccccc1)NC(=O)CCC(=O)O)C(=O)CCl (stereo partly drawn) [Example 3, Suc--Phe--Gly--Ala--LeuCH2 Cl] (Suc-FGA[ξL]-CH2Cl) | +++ (key: -: no activity; +/-: low activity; +: active at 100 μg/mL; ++: active at 50 μg/mL; +++: active at 10 μg/mL; ++++: active at <5 μg/mL) |
| CC(C)CC(NC(=O)C(C)NC(=O)CNC(=O)C(Cc1ccccc1)NC(=O)OCc1ccccc1)C(=O)CBr (stereo not drawn) [Example 10, Z--Phe--Gly--Ala--LeuCH2 Br] | +++ (key: -: no activity; +/-: low activity; +: active at 100 μg/mL; ++: active at 50 μg/mL; +++: active at 10 μg/mL; ++++: active at <5 μg/mL) |
| CC(C)C[C@H](NC(=O)[C@H](Cc1ccccc1)NC(=O)CNC(=O)[C@H](Cc1ccccc1)NC(=O)OCc1ccccc1)C(=O)CCl [Example 14, Z--Phe--Gly--Phe--LeuCH2 Cl] (Cbz-FGFL-CH2Cl) | ++ (key: -: no activity; +/-: low activity; +: active at 100 μg/mL; ++: active at 50 μg/mL; +++: active at 10 μg/mL; ++++: active at <5 μg/mL) |
| CC(C)C[C@H](NC(=O)[C@H](CO)NC(=O)CNC(=O)[C@H](Cc1ccccc1)NC(=O)OCc1ccccc1)C(=O)CCl [Example 15, Z--Phe--Gly--Ser--LeuCH2 Cl] (Cbz-FGSL-CH2Cl) | ++ (key: -: no activity; +/-: low activity; +: active at 100 μg/mL; ++: active at 50 μg/mL; +++: active at 10 μg/mL; ++++: active at <5 μg/mL) |
| CC(C)CC(NC(=O)[C@H](C)NC(=O)[C@H](CC(C)C)NC(=O)[C@H](Cc1ccccc1)NC(=O)OCc1ccccc1)C(=O)CCl (stereo partly drawn) [Example 13, Z--Phe--Leu--Ala--LeuCH2 Cl] (Cbz-FLA[ξL]-CH2Cl) | ++ (key: -: no activity; +/-: low activity; +: active at 100 μg/mL; ++: active at 50 μg/mL; +++: active at 10 μg/mL; ++++: active at <5 μg/mL) |
| CC[C@H](C)[C@H](NC(=O)[C@H](C)NC(=O)CCC(=O)OC)C(=O)N[C@@H](Cc1ccccc1)C(=O)N[C@@H](CC(C)C)C(=O)CCl [Example 17, MeOSuc--Ala--Ile--Phe--LeuCH2 Cl] (MeOSuc-AIFL-CH2Cl) | +++ (key: -: no activity; +/-: low activity; +: active at 100 μg/mL; ++: active at 50 μg/mL; +++: active at 10 μg/mL; ++++: active at <5 μg/mL) |
| CC(C)C[C@H](NC(=O)[C@H](C)NC(=O)CNC(=O)OC(C)(C)C)C(=O)CCl [Example 7, Boc--Gly--Ala--LeuCH2 Cl] (Boc-Gly-Ala-Leu-CH2Cl) | ++ (key: -: no activity; +/-: low activity; +: active at 100 μg/mL; ++: active at 50 μg/mL; +++: active at 10 μg/mL; ++++: active at <5 μg/mL) |
| C[C@H](NC(=O)CNC(=O)[C@H](Cc1ccccc1)NC(=O)OCc1ccccc1)C(=O)N[C@@H](Cc1ccc(O)cc1)C(=O)CCl [Example 20, Z--Phe--Gly--Ala--TyrCH2 Cl] (Cbz-FGAY-CH2Cl) | ++ (key: -: no activity; +/-: low activity; +: active at 100 μg/mL; ++: active at 50 μg/mL; +++: active at 10 μg/mL; ++++: active at <5 μg/mL) |
| CC(C)C[C@H](NC(=O)[C@@H]1CCCN1C(=O)CNC(=O)[C@H](Cc1ccccc1)NC(=O)OCc1ccccc1)C(=O)CCl [Example 16, Z--Phe--Gly--Pro--LeuCH2 Cl] (Cbz-FGPL-CH2Cl) | ++ (key: -: no activity; +/-: low activity; +: active at 100 μg/mL; ++: active at 50 μg/mL; +++: active at 10 μg/mL; ++++: active at <5 μg/mL) |
| CCC(C)C(NC(=O)C(C)NC(=O)CCC(=O)OC)C(=O)NC(Cc1ccccc1)C(=O)NC(CCC(=O)OC)C(=O)CCl (stereo not drawn) [Example 19, MeOSuc--Ala--Ile--Phe--Glu(OCH3)CH2 Cl] (MeOSuc-AIFE(OMe)-CH2Cl; configuration not given here) | +++ (key: -: no activity; +/-: low activity; +: active at 100 μg/mL; ++: active at 50 μg/mL; +++: active at 10 μg/mL; ++++: active at <5 μg/mL) |
| CC(C)C[C@H](NC(=O)[C@H](C)NC(=O)CNC(=O)[C@H](CC(C)C)NC(=O)OCc1ccccc1)C(=O)CCl [Example 8, Z--Leu--Gly--Ala--LeuCH2 Cl] (Cbz-LGAL-CH2Cl) | +++ (key: -: no activity; +/-: low activity; +: active at 100 μg/mL; ++: active at 50 μg/mL; +++: active at 10 μg/mL; ++++: active at <5 μg/mL) |
